According to US7521447B2, “P38 inhibitors and methods of use thereof” (Array Biopharma Inc., priority 2003, dated 2009):

Test system: LPS-induced TNF-α secretion from human peripheral blood mononuclear cells (PBMC)
Test: PBMC Assay: inhibition of LPS-induced TNF-α secretion
Format: cell-based
Set-up: key: An “active” compound is defined as a compound having an IC50 below 500 nM
Details: LPS-stimulated human PBMC, TNF-α ELISA
Method: The ability of compounds of this invention to inhibit TNF-α production was assessed by using human peripheral blood mononuclear cells (“PBMC”) which synthesize and secrete TNF-α when stimulated with lipopolysaccharide.
Compound test solutions were made by making 5 fold serial dilutions in DMSO, which dilutions were then diluted to 5× stocks by diluting with MEM, 2% heat inactivated fetal bovine serum (“FBS”), 20 mM HEPES, 2 mM L-glutamine, and 1% penicillin/streptomycin.
PBMC's were isolated from human blood as follows. Whole blood samples were collected from human volunteers into Vacutainer™ CPT from Becton Dickinson. Tubes were mixed and centrifuged at room temperature (18-25° C.) in a horizontal rotor for a minimum of 15 minutes at 1500-1800 RCF (relative centrifugal force). For each donor, the buffy coat layers were pooled into a single tube and washed twice with phosphate buffered saline (“PBS”). The cell pellet was resuspended in MEM, 2% heat inactivated fetal bovine serum (“FBS”), 20 mM HEPES, 2 mM L-glutamine, and 1% penicillin/streptomycin. Total cell number was determined using a hemocytometer and the cell suspension was adjusted to 2×10^6 cells/mL.
0.1 mL of cell suspension was added to each well of a 96-well cell culture plate. 30 μL of a compound test solution was added, and the cells were incubated in a 37° C./5% CO2 incubator for 1 hour. 20 μL of 7.5 ng/mL lipopolysaccharide (LPS E. Coli K-235) was then added to each well, and the cells were returned to the 37° C./5% CO2 incubator for 16-20 hours. The cells were centrifuged for 15 minutes at 1100 RCF. Approximately 0.12 mL of the supernatant was transferred into a clean 96 well polypropylene plate. The samples were either assayed immediately or were stored at −80° C. until ready for assay. TNF-α levels were determined in each sample using a human TNF-α ELISA assay such as that described below.
TNF-α levels were determined using the following assay. TNF-alpha antibody coated plates were prepared by adding 150 μL of 2 μg/mL anti-TNF-α purified mouse monoclonal IgG in Carbonate-Bicarbonate buffer (BupH™ Carbonate-Bicarbonate Buffer Pack) to wells of a 96-well Immulon 4 plate (Immulon 4 ELISA Flat Bottom Plate; Dynex, catalog number 011-010-3855) and incubated overnight at 2-8° C. Coating solution was removed and 200 μL of “blocking buffer” (20 mM HEPES pH 7.4, 150 mM NaCl, 2% BSA) was added and plates were stored 2-8° C. until ready to use. A ten-point recombinant human TNF-α standard curve was prepared by a 1:2 serial dilution in “sample diluent” (20 mM HEPES, pH 7.4, 150 mM NaCl, 2 mM MgCl2, 1% BSA) with a top concentration of 6000 pg/mL.
Blocking solution was removed from TNF-α ELISA plates by washing five times with 300 μL of “wash buffer” (20 mM HEPES, pH 7.4, 150 mM NaCl, 2 mM MgCl2, 0.02% Tween-20). 50 μL of “sample diluent” was added to all wells, and then either 50 μL of a TNF-α standard curve solution or test compound supernatant was added to all wells. The plate was incubated at room temperature for one hour with shaking (300 rpm). The plate was washed wash five times with 300 μL “wash buffer”. 100 μL of 0.2 μg/mL biotinylated goat anti-human TNF-α in “antibody diluent” (20 mM HEPES, pH 7.4, 150 mM NaCl, 2 mM MgCl2, 1% BSA, 0.02% Tween-20) was added per well, and the plate was incubated at room temperature for one hour with shaking (300 rpm). The plate was washed wash five times with 300 μL “wash buffer” per well. 100 μL of 0.02 μg/mL streptavidin alkaline phosphatase in “antibody diluent” was added per well, and the plate was incubated at room temperature for one hour with shaking (300 rpm). The plate was washed wash five times with 300 μL wash buffer per well. 200 μL of 1 mg/mL pNPP (p-nitrophenyl phosphate) in diethanolamine buffer with 0.5 mM MgCl2 was added per well, and the plate was incubated for 30 to 45 minutes at room temperature with shaking (300 rpm). […]

Row | Compound | PBMC IC50 (nM)
1 | CC(C)Cn1ncc2cc(Nc3ccc(F)cc3F)ccc21 [Compound 2h-1, (2,4-difluorophenyl)-(1-isobutyl-1H-indazol-5-yl)-amine] | active
2 | CC(C)Cn1ncc2cc(Nc3ccc(F)cc3)ccc21 [Compound 2h-2, (4-fluorophenyl)-(1-isobutyl-1H-indazol-5-yl)-amine] | active
3 | Cc1ccccc1Nc1ccc2c(cnn2CC(C)C)c1 [Compound 2h-10, (1-isobutyl-1H-indazol-5-yl)-O-tolyl-amine] | active

Biological target: activated p38α enzyme (Homo sapiens, UniProt Q16539)
Test: p38 Biochemical Assay
Set-up: key: An “active” compound is defined as a compound having an IC50 below 500 nM
Details: 5 nM activated p38α, 1 uM ATF-2 substrate, 10 μM ATP
Method: P38 activity was assayed at room temperature in a 100 μl reaction containing 5 nM activated p38α enzyme and 1 uM ATF-2 (Activating Transcription Factor 2 fusion protein) as the substrate in 25 mM HEPES (pH 7.4), 100 μM Vanadate, 1 mM DTT, 10 mM MgCl2 and 10 μM [[…]-^33P]-ATP (˜0.1 μCi P^33/reaction). The reaction was terminated after 30-40 minutes by adding 25% TCA, let stand for 5 minutes and then transferred directly to a GF-B membrane filter plate. The filter was washed twice for 30 seconds with 0.5% phosphoric acid using a Tomtec Mach III Automated Harvestor. After washing, the vacuum was continued for 30 seconds to dry the filter. Approximately 30 μl of scintillant was added per well to the filter plate and then read in a Liquid Scintillation Counter (Packard TopCount HTS).

activated p38α enzyme, sequence (Q16539 whole entry): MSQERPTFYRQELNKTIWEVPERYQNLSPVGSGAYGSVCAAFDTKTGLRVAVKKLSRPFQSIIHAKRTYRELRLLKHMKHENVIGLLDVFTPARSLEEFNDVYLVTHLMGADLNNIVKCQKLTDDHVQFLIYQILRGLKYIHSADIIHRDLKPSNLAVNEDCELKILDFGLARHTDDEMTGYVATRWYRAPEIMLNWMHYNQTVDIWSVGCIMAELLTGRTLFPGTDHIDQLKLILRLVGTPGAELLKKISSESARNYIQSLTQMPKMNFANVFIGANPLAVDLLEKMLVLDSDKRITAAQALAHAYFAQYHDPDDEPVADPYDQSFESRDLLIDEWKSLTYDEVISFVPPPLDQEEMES

Row | p38 Inhibition IC50 (nM) | Compound
4 | active | COC(=O)C(CCN)NC(=O)c1cc2c(cnn2CC(C)C)cc1Oc1ccc(F)cc1 (centres unmarked) [Compound 1j-2, 4-amino-2-{[5-(4-fluorophenoxy)-1-isobutyl-1H-indazole-6-carbonyl]-amino}butyric acid methyl ester]
5 | active | COC(=O)C(CCN)NC(=O)c1cc2c(cnn2CC(F)(F)F)cc1Oc1ccc(F)cc1 (centres unmarked) [Compound 1j-4, 4-amino-2-{[5-(4-fluorophenoxy)-1-(2,2,2-trifluoroethyl)-1H-indazole-6-carbonyl]-amino}butyric acid methyl ester]
6 | active | CC(C)Cn1ncc2cc(Nc3ccc(F)cc3F)ccc21 [Compound 2h-1, (2,4-difluorophenyl)-(1-isobutyl-1H-indazol-5-yl)-amine]
7 | active | CC(C)Cn1ncc2cc(Nc3ccc(F)cc3)ccc21 [Compound 2h-2, (4-fluorophenyl)-(1-isobutyl-1H-indazol-5-yl)-amine]
8 | active | Cc1ccccc1Nc1ccc2c(cnn2CC(C)C)c1 [Compound 2h-10, (1-isobutyl-1H-indazol-5-yl)-O-tolyl-amine]
9 | active | CC(C)Cn1ncc2cc(C(O)c3ccc(Cl)cc3F)ccc21 (centres unmarked) [Compound 4f-7, (4-chloro-2-fluorophenyl)-(1-isobutyl-1H-indazol-5-yl)-methanol]
10 | active | CC(C)Cn1ncc2cc(C(O)c3ccc(F)cc3Cl)ccc21 (centres unmarked) [Compound 4f-8, (2-chloro4-fluorophenyl)-(1-isobutyl-1H-indazol-5-yl)-methanol]
11 | active | CC(C)Cn1ncc2cc(C(=O)c3ccc(F)cc3Cl)ccc21 [Compound 5f-8, (2-chloro-4-fluorophenyl)-(1-isobutyl-1H-indazol-5-yl)-methanone]
12 | active | O=C(c1ccc2c(cnn2CC(F)(F)F)c1)c1ccc(F)cc1F [Compound 5f-11, (2,4-difluorophenyl)-[1-(2,2,2-trifluoro-ethyl)-1H-indazol-5-yl]-methanone]
13 | active | C=CCn1ncc2cc(C(=O)c3ccc(F)cc3F)ccc21 [Compound 5f-12, (1-allyl-1H-indazol-5-yl)-(2,4-difluorophenyl)-methanone]
14 | active | Cc1ccc(-n2nc(C(C)(C)C)cc2NC(=O)NCc2cccnc2Oc2ccc3c(cnn3C)c2)cc1 [Compound 6n, 1-(5-tert-butyl-2-p-tolyl-2H-pyrazol-3-yl)-3-[2-(1-methyl-1H-indazol-5-yloxy)-pyridin-3-ylmethyl]-urea]
15 | active | CCON=C(c1ccc(F)cc1)c1ccc2c(cnn2CC(C)C)c1 [Compound 7f-4, (4-fluorophenyl)-(1-isobutyl-1H-indazol-5-yl)-methanone O-ethyl-oxime]
16 | active | CC(C)Cn1ncc2cc(C(=NOCc3ccccc3)c3ccc(F)cc3F)ccc21 [Compound 7f-7, (2,4-difluorophenyl)-(1-isobutyl-1H-indazol-5-yl)-methanone O-benzyl-oxime]
17 | active | CON=C(c1ccc(F)cc1)c1ccc2c(cnn2CC(C)C)c1 [Compound 7f-9, (4-fluorophenyl)-(1-isobutyl-1H-indazol-5-yl)-methanone O-methyl-oxime]
18 | active | ON=C(c1ccc2c(cnn2CC(F)(F)F)c1)c1ccc(F)cc1F [Compound 7f-12, (2,4-difluorophenyl)-[1-(2,2,2-trifluoroethyl)-1H-indazol-5-yl]-methanone oxime]
19 | active | CON=C(c1ccc2c(cnn2CC(F)(F)F)c1)c1ccc(F)cc1F [Compound 7f-13, (2,4-difluorophenyl)-[1-(2,2,2-trifluoro-ethyl)-1H-indazol-5-yl]-methanone O-methyl oxime]
20 | active | CS(=O)(=O)n1ncc2cc(C(=NO)c3ccc(F)cc3F)ccc21 [Compound 7f-14, (2,4-difluorophenyl)-(1-methanesulfonyl-1H-indazol-5-yl)methanone oxime]
21 | active | CON=C(c1ccc2c(cnn2S(C)(=O)=O)c1)c1ccc(F)cc1F [Compound 7f-15, (2,4-difluorophenyl)-(1-methanesulfonyl-1H-indazol-5-yl)-methanone O-methyl oxime]
22 | active | C=CCn1ncc2cc(C(=NO)c3ccc(F)cc3F)ccc21 [Compound 7f-17, (1-allyl-1H-indazol-5-yl)-(2,4-difluorophenyl)-methanone oxime]
23 | active | Cc1ccc(-n2nc(C(C)(C)C)cc2NC(=O)NCc2cc(F)ccc2Oc2ccc3c(cnn3C)c2)cc1 [Compound 7t-1, 1-(5-tert-butyl-2-p-tolyl-2H-pyrazol-3-yl)-3-[5-fluoro-2-(1-methyl-1H-indazol-5-yloxy)-benzyl]urea]
24 | active | Cc1ccc(-n2nc(C(C)(C)C)cc2NC(=O)NCc2cc(F)ccc2Nc2ccc3c(cnn3CC3CCC3)c2)cc1 [Compound 9q-2, 1-(5-tert-butyl-2-p-tolyl-2H-pyrazol-3-yl)-3-[2-(1-cyclobutylmethyl-1H-indazol-5-ylamino)-5-fluorobenzyl]-urea]
25 | active | CC(C)Cn1ncc2cc(Oc3ccc(F)cc3)c(C(N)=O)cc21 [Compound 11g-1, 5-(4-fluorophenoxy)-1-isobutyl-1H-indazole-6-carboxylic acid amide]
26 | active | CN(C)CCNC(=O)c1cc2c(cnn2CC(F)(F)F)cc1Oc1ccc(F)cc1 [Compound 11g-14, 5-(4-fluorophenoxy)-1-(2,2,2-trifluoroethyl)-1H-indazole-6-carboxylic acid (2-dimethylaminoethyl) amide]
27 | active | CC(C)Cn1ncc2cc(Oc3ccccc3CC(=O)Nc3ccc(N4CCOCC4)cc3)ccc21 [Compound 16p, 2-[2-(1-isobutyl-1H-indazol-5-yloxy)-phenyl]-N-(4-morpholin-4-yl-phenyl)-acetamide]
28 | active | Cc1ccc(-n2nc(C(C)(C)C)cc2NC(=O)N(C)Cc2cc(F)ccc2Oc2ccc3c(cnn3C)c2)cc1 [Compound 28t, 3-(5-tert-butyl-2-p-tolyl-2H-pyrazol-3-yl)-1-[5-fluoro-2-(1-methyl-1H-indazol-5-yloxy)-benzyl]-1-methylurea]

Row | Compound | p38 Inhibition IC50 (nM)
29 | Cc1ccccc1C(O)c1ccc2c(cnn2CC(C)C)c1 (centres unmarked) [Compound 4f-10, (1-isobutyl-1H-indazol-5-yl)-O-tolyl methanol] | active
